Laboratory results taken from ChEMBL document CHEMBL1201862, “PubChem BioAssay data set” (2004).
Activity calls are given as the source filed them. Where a SMILES comes first, the peptide text is derived from it. The star is where a group is joined. Boc = CC(C)(C)OC(=O)*; Bn = c1ccc(C*)cc1; NHNH2 = NN*

Key:
[1] = molecular target: T1, Voltage-gated N-type calcium channel alpha-1B subunit/Amyloid beta A4 precursor protein-binding family A member 1 (Homo sapiens, UniProt Q00975+Q02410); assay type: protein assay
T1 sequence (Q00975 whole entry): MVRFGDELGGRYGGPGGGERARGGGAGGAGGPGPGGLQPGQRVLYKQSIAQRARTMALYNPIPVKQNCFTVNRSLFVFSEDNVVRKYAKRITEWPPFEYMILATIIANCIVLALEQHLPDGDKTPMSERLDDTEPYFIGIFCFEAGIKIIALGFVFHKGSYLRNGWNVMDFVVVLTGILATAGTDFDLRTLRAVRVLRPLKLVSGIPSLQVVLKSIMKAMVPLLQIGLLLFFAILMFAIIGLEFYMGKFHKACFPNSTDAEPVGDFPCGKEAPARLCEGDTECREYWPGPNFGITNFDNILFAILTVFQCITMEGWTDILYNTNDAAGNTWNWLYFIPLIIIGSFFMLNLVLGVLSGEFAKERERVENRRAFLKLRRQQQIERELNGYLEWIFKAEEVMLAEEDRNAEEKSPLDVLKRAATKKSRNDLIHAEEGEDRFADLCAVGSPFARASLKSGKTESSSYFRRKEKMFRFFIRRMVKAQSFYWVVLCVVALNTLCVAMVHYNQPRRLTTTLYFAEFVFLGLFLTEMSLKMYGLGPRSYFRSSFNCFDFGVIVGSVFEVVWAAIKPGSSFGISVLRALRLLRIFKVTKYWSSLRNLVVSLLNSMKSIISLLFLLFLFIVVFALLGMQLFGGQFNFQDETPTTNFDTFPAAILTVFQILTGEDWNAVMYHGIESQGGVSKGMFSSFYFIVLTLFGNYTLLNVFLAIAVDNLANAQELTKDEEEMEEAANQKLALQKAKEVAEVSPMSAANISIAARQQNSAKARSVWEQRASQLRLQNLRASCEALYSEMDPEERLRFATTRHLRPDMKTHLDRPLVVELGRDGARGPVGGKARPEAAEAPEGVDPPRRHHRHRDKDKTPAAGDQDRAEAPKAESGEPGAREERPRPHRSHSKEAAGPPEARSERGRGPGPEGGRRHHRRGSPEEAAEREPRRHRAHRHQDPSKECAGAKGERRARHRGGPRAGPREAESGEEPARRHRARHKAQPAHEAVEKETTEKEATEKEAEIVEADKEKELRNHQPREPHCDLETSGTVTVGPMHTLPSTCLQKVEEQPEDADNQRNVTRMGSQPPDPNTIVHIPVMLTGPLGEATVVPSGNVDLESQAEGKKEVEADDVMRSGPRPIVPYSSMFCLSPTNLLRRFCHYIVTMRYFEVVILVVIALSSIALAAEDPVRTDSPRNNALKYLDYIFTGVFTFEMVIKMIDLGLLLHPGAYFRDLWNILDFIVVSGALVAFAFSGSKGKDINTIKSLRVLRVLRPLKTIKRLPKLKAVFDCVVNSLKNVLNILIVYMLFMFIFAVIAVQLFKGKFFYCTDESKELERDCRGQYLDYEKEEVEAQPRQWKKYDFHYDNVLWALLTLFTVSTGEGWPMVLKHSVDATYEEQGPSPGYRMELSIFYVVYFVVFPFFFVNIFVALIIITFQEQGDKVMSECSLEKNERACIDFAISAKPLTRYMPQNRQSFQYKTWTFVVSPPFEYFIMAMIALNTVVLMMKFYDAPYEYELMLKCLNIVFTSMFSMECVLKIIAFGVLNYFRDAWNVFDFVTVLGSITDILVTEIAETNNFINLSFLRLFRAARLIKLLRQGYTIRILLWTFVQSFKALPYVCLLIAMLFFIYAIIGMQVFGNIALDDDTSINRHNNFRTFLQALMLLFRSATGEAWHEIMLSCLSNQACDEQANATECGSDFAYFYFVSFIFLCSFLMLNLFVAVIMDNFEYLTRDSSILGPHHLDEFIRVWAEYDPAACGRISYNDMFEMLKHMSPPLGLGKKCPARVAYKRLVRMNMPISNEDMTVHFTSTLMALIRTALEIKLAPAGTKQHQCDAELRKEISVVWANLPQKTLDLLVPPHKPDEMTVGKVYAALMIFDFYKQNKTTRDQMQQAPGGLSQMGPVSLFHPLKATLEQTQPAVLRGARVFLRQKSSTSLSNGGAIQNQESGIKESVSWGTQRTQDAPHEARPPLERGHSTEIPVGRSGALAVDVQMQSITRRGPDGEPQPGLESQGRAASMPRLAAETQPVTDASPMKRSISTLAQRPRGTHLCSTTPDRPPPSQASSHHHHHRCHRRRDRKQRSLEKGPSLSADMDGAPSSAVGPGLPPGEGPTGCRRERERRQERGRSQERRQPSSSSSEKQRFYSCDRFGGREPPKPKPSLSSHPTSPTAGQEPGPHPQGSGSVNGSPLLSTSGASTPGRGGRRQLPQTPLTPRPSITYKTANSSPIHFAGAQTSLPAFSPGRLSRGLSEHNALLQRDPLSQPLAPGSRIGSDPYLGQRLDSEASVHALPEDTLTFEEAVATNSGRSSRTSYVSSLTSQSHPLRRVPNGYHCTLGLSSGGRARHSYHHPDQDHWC
T1 sequence (Q02410 whole entry): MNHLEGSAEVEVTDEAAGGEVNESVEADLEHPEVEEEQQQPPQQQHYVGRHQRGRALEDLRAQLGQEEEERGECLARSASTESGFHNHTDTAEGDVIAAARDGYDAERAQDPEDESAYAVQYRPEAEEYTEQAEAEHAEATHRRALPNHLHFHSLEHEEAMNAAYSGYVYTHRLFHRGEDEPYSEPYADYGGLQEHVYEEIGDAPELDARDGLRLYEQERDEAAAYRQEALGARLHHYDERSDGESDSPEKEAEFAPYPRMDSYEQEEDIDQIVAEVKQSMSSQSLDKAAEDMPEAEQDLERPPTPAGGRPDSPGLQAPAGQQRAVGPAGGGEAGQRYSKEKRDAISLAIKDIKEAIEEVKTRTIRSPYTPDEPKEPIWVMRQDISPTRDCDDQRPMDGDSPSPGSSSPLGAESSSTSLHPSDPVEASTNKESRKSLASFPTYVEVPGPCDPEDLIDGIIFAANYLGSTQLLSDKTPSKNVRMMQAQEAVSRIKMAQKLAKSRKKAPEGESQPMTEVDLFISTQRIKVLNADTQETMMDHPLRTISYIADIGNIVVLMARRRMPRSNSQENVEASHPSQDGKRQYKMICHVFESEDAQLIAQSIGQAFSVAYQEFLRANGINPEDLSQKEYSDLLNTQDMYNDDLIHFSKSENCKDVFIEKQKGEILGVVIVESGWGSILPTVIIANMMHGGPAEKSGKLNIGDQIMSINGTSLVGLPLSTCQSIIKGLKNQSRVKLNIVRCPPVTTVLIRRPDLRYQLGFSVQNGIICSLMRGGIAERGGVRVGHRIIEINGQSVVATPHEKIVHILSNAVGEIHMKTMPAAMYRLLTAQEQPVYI

[2] = molecular target: Induced myeloid leukemia cell differentiation protein Mcl-1 (Homo sapiens, UniProt Q07820); assay type: functional
Chain of Induced myeloid leukemia cell differentiation protein Mcl-1 (Q07820 whole entry): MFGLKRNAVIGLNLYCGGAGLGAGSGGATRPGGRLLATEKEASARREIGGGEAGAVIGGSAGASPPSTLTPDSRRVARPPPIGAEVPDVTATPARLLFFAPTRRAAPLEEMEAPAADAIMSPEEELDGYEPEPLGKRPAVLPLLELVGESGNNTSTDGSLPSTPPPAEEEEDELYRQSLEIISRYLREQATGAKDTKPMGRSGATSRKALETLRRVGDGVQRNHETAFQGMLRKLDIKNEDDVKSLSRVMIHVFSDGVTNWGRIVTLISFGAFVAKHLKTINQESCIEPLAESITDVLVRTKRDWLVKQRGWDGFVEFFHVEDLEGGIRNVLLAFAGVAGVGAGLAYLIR

[3] = molecular target: T1, Voltage-gated N-type calcium channel alpha-1B subunit/Amyloid beta A4 precursor protein-binding family A member 1; assay type: protein assay; remark: listed apart in the source
[4] = HEK-293T cell viability reduction – luminescence, B-cell screen hits, cytotoxicity control for BCR NF-kB inhibitor project, dose response (AID 489021); assay type: functional, cell-based;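 note: HEK-293T cells carrying an NF-kB luciferase reporter; cells exposed to compound for about 14 hours before viability readout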
Aminopeptidase N = molecular target: T2, Aminopeptidase N (Plasmodium falciparum FcB1/Columbia, UniProt O96935); assay: malaria alanyl aminopeptidase activity blockers – biochemical, fluorogenic H-Leu-NHMec substrate, 1536-well (AID 1445); set-up: species or system Plasmodium falciparum 3D7, 3D7
T2 sequence (O96935 whole entry): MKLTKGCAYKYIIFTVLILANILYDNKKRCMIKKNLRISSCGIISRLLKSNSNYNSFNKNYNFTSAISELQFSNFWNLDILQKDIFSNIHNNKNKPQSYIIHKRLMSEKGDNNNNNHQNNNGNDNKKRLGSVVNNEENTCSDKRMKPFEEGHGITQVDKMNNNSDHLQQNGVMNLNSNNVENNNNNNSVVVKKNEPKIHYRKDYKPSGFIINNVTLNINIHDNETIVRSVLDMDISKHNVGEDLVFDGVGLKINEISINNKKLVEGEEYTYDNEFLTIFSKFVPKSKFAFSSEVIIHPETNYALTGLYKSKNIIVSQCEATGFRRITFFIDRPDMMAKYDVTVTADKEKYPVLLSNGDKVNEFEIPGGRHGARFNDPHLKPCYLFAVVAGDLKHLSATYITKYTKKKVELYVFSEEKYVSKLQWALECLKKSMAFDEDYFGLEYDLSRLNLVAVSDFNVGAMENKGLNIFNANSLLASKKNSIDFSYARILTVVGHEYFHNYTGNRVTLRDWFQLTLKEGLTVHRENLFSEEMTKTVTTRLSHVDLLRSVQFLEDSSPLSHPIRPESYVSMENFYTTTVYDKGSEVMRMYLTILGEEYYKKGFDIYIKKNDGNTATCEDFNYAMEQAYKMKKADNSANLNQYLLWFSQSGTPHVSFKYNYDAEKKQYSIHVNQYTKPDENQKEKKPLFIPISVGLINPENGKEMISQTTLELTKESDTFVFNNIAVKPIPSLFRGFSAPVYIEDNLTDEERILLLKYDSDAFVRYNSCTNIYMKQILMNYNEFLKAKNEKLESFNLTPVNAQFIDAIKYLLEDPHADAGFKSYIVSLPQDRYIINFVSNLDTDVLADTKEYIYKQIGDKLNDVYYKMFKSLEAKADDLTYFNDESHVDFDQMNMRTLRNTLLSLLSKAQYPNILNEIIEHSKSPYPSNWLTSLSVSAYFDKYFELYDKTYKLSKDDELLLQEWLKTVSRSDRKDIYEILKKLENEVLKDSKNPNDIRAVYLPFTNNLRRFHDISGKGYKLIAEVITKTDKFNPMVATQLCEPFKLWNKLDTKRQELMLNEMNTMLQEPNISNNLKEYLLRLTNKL

[5] = molecular target: T3, Replicative DNA helicase DnaB (Mycobacterium tuberculosis, UniProt P9WMR3); assay: DnaB intein splicing inhibitors, dose response, biochemical, cell-free fluorescence (AID 449749); assay type: functional
T3 sequence (P9WMR3 whole entry): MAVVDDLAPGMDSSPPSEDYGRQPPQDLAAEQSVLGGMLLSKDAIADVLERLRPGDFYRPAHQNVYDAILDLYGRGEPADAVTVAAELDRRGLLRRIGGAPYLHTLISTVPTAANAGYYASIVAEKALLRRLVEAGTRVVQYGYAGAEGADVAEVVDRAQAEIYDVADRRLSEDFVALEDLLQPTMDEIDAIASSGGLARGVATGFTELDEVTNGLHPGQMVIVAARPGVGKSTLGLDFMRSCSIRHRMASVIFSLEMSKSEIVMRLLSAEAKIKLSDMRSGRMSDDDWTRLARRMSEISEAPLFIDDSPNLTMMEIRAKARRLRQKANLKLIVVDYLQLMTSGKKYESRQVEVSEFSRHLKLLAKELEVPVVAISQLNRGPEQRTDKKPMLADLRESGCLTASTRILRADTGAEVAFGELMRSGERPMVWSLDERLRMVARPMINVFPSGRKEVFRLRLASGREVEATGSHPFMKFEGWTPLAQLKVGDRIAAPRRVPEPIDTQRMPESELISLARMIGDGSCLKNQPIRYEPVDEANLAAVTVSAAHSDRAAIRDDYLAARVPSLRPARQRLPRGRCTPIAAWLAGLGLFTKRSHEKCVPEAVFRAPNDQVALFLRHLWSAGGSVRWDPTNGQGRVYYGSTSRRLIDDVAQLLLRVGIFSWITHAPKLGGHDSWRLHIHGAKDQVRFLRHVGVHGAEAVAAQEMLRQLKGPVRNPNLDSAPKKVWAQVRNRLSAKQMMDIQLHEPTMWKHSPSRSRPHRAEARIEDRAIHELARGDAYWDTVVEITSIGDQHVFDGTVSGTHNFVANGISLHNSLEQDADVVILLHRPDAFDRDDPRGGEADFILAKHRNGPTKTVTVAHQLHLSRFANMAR

Protein RecA = molecular target: T4, Protein RecA (Mycobacterium tuberculosis, UniProt P9WHJ3); assay: Fluorescence Cell-Free Homogeneous Dose Retest to Identify Inhibitors of RecA-Intein Splicing Activity. [Related pubchem assays (depositor defined):AID2097, AID2223, AID489010, AID492950]; assay type: functional
T4 sequence (P9WHJ3 whole entry): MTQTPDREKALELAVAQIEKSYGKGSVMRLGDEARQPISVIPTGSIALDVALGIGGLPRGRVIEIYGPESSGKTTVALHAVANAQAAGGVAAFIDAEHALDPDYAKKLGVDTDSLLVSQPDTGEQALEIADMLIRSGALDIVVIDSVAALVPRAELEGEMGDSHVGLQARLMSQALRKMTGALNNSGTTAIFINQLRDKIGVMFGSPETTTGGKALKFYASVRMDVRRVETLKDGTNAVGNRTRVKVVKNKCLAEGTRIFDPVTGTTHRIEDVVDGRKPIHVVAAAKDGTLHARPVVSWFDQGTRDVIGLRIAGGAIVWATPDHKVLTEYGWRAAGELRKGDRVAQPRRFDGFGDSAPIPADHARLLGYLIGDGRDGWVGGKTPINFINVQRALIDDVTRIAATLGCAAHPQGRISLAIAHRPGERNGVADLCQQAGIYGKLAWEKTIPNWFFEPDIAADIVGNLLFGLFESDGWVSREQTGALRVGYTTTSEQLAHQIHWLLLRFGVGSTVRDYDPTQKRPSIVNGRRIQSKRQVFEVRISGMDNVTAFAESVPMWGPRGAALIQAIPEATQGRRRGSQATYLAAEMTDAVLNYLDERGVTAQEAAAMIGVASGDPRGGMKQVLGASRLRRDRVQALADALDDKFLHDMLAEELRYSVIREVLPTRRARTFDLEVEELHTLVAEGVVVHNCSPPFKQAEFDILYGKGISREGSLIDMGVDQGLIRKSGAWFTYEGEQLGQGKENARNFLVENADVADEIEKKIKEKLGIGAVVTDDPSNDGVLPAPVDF

[6] = molecular target: T5, Polyadenylate-binding protein 1 (Homo sapiens, UniProt P11940); assay: MLLE binding blockers, Cy5 peptide tracer – biochemical, fluorescence polarization, Cy5-PAM2 peptide, secondary, miRNA deadenylation inhibitor project, dose response (AID 602260); assay type: functional; details: read-out: IC50_Mean
T5 sequence (P11940 whole entry, the tested form may be a part): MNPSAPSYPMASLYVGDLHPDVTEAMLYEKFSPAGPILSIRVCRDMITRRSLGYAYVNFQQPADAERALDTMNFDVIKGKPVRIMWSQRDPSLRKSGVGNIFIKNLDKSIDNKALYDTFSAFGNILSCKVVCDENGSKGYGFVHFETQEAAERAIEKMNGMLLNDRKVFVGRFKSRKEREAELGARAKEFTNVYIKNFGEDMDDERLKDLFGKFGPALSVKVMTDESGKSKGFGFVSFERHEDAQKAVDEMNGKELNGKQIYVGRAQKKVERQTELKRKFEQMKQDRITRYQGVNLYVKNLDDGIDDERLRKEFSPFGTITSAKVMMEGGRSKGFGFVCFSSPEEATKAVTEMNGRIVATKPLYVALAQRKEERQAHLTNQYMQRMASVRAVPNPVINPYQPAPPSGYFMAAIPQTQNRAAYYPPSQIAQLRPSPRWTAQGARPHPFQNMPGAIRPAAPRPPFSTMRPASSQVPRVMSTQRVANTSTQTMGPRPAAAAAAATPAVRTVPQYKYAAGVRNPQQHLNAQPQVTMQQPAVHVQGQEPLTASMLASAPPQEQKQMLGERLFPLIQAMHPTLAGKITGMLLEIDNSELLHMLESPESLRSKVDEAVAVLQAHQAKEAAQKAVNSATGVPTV

[7] = molecular target: T5, Polyadenylate-binding protein 1; assay: MLLE domain peptide-binding blockers, IC50 – biochemical, fluorescence polarization, FITC-PAM2 peptide, dose response (AID 602259); assay type: functional; details: read-out: IC50_Mean
Large T antigen = Large T antigen (Simian virus 40, UniProt P03070); assay type: functional, Betapolyomavirus macacae;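 note: Confirmatory-stage PubChem screen for compounds that inhibit SV40 T antigen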
Chain of Large T antigen (P03070 whole entry): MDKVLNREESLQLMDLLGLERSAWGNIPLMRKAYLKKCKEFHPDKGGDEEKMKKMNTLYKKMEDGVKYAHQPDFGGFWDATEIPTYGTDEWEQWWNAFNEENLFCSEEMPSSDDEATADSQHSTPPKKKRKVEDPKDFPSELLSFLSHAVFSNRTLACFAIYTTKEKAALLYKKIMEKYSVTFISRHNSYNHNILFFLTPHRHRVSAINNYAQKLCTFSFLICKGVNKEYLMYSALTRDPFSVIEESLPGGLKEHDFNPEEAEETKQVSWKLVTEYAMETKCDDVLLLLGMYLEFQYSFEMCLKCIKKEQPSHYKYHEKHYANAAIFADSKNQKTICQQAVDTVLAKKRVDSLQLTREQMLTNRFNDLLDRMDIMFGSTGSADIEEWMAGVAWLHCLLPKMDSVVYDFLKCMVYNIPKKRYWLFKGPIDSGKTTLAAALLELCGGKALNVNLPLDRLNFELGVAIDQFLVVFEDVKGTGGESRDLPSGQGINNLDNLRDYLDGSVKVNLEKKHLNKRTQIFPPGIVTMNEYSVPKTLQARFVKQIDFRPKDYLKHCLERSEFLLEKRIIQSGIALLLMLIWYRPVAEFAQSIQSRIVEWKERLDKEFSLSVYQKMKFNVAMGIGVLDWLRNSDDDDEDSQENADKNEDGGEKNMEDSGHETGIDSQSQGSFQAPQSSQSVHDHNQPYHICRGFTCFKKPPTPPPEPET

[8] = molecular target: FAD-linked sulfhydryl oxidase ALR (Homo sapiens, UniProt P55789); assay: ALR-catalysed DTT oxidation blockers – biochemical, H2O2 detection, luminescence, cherry-pick, dose response (AID 493248)
Chain of FAD-linked sulfhydryl oxidase ALR (P55789 whole entry): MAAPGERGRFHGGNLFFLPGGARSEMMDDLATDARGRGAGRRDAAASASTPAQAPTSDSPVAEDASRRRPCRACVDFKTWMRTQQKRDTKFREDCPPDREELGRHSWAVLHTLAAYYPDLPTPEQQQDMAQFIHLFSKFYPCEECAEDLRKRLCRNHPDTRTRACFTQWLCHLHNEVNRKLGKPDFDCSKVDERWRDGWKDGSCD

HEK293 [9] = assay: inhibition of NOD1-driven NF-kB reporter – cell-based, luminescence, uHTS, primary screen (AID 1578); assay type: functional; details: Homo sapiens
HEK293 [10] = assay: cells; assay type: functional, cell-based; details: Homo sapiens
[11] = NIH3T3 cell viability loss – ATP luminescence, mouse fibroblasts, counter-screen, dose response (AID 2010); assay type: functional, cell-based;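 note: cells exposed to compound for about 90 hours before reading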
HEK293 [12] = assay: EBV LMP1 TES2 canonical NF-kB signalling blockers – cell-based, HEK293, luciferase, cherry-pick, dose response (AID 588343); assay type: functional; details: Homo sapiens
HEK293 [13] = assay: NOD2 signaling inhibitors in MDP-stimulated cells, cell-based, uHTS, luminescence (AID 2001); assay type: functional; details: Homo sapiens
HEK293 [14] = assay: cells; assay type: functional, cell-based; details: Homo sapiens; remark: listed apart in the source
[15] = viability of HCT116 lacking mutant beta-catenin – cell-based, human colon tumor, dose response (AID 1045); assay type: functional;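 note: HCT116 colon tumor cells with beta catenin knocked out; cells exposed to compound for 60 hours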
[16] = viability of PTEN-deleted HCT116 cells – cell-based, HCT116 PTEN knockout, dose response (AID 1047); assay type: functional;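 note: HCT116 colon tumor cells with PTEN knocked out; cells exposed to compound for 60 hours before readout; potency for loss of cell viability measured by luminescence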
[17] = Trypanosoma cruzi growth suppression in host cells – NIH3T3 host cells, beta-gal luminescence, confirmation (AID 2044); assay type: functional, cell-based;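 note: intracellular parasites grown in NIH/3T3 mouse fibroblasts as host cells; luminescent beta-galactosidase reporter signal from transgenic T. cruzi replicating inside host cells; inhibitors lower the luminescence signal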

**Q.** For `O=[N+]([O-])c1ccc(-c2cc(-c3ccc(Cl)cc3)n[nH]2)cc1`, which IC50 [1] is on record?
**A.** > 50 µM (inactive)

**Q.** And the IC50 [2]?
**A.** 2.5 µM (active)

**Q.** And the IC50 [3]?
**A.** > 56.8 µM (not active)

**Q.** For `COc1ccc(/C=C2/SC(=S)N(CCC(=O)O)C2=O)cc1`, which IC50 [4] is on record?
**A.** > 80 µM (inactive)

**Q.** With `COc1ccc(/C=C(\CC(=O)O)c2nc3ccccc3o2)cc1` as the molecule, how does the IC50 (Aminopeptidase N) read?
**A.** 81.5 µM (active)

**Q.** For `N#Cc1c(C#N)c(O)c2ccccc2c1O`, which IC50 [1] is on record?
**A.** 25.8 µM (active)

**Q.** What about the AC50 [5] of the same molecule?
**A.** > 380 µM (inactive)

**Q.** What about the IC50 [3] of the same molecule?
**A.** 3.83 µM (active)

**Q.** And the EC50 (Protein RecA)?
**A.** 1.55 µM (active)

**Q.** Which results are given for `N#CC1=C(N)N=C(S)C(C(N)=O)C1c1ccccc1F` (configuration not stated)?
**A.** IC50 [1]: > 50 µM (inactive); IC50 [6]: > 66 µM (inactive); IC50 [7]: > 66 µM (inactive); IC50 (Large T antigen): 60 µM (active); IC50 [3]: 13.6 µM (active); AC50 [8]: 8.62 µM (active)

**Q.** What does the source list for `CC(=O)Nc1nc(C)c(-c2csc(Nc3cccc([N+](=O)[O-])c3)n2)s1`?
**A.** EC50 (HEK293 [9]): 9.4 µM (active); IC50 (HEK293 [10]): 17.1 µM (active); EC50 [11]: 14.1 µM (active); AC50 (HEK293 [12]): 2.16 µM (active); IC50 (HEK293 [13]): 8.61 µM (active); IC50 (HEK293 [14]): 11.1 µM (active); EC50 [15]: 24.8 µM (active); EC50 [16]: 18.2 µM (active); EC50 [17]: 0.995 µM (active)

**Q.** For `Cc1ccc2nc(O)c(C3=NN(C(=O)CCC(=O)O)C(c4cccs4)C3)c(-c3ccccc3)c2c1` (configuration not stated), which IC50 (Aminopeptidase N) is on record?
**A.** 68.9 µM (active)

**Q.** For `COc1ccc(/C=N/NC(=O)c2cccc(NC(=O)c3ccccc3Cl)c2)cc1OC`, which IC50 (Aminopeptidase N) is on record?
**A.** 53.9 µM (active)

**Q.** For `CC(C)CC(NC(=O)C(COCc1ccccc1)NC(=O)OC(C)(C)C)C(=O)NN` (configuration not stated) (Boc-Ser(Bn)-Leu-NHNH2; configuration not given here), which IC50 (Aminopeptidase N) is on record?
**A.** 81.4 µM (active)
